Measurements from patent US7279161B2, “Factor IX/factor IXa activating antibodies and antibody derivatives” (Baxter Aktiengesellschaft, priority 1999, dated 2007).

Experiments:
human FIXa = molecular target: T1, human FIXa (Homo sapiens, UniProt P00740); test: Chromogenic FVIII-like (FXa generation) assay with human FIXa added; assay type: biochemical; conditions: 12 μM peptide, 2.3 nM human FIXa
T1 construct: with (+) and without (−) addition of 50 ng human FIXaβ; purchased ERL (Enzyme Research Laboratories)
Procedure: The chromogenic activity of these antibody preparations was measured in the following FXa generation kinetic assay: 10 μg of monoclonal antibody (in 25 μl) were transferred to microtiter plate wells and warmed to 37° C. Chromogenic substrate (S-2222), synthetic thrombin inhibitor (I-2581), factor IXa and FX were reconstituted in sterile water and FIXa/FX (both bovine) were mixed with phospholipids according to the supplier's protocol. Per reaction, 50 μl of the phospholipid/FIXa/FX solution were combined with 25 μl CaCl2 (25 mM) and 50 μl of the substrate/inhibitor cocktail. To start the reaction, 125 μl of the premix were added to the monoclonal antibody solution in the microtiter plates and incubated at 37° C. Absorbance at 405 nm and 490 nm of the samples was read at various times (5 min to 2 h) against a reagent blank ([…] TBS instead of monoclonal antibodies) in a Labsystems iEMS Reader MF™ microtiter plate reader using GENESIS™ software. In parallel, the same reactions were performed except that 50 ng human FIXa were added per reaction.
To analyze the FVIII-like (FIXa activating) activity of the peptides, an assay system based on a commercial available FVIII assay was developed (see examples 2 and 4). The basic principle is, that without a cofactor, FIXa will have very limited activity towards its natural substrate FX. […] The amount of FXa generated is monitored by cleavage of a chromogenic substrate. The principle of the revised chromogenic assay is described for two representative peptides: A1/3 and A1/5 (Table 2). Briefly, 25 μl aliquots of peptide stock solution (in imidazole buffer (IZ) 50 mM imidazole, 100 mM NaCl, pH 7.2) were transferred to microtiter plate wells and warmed to 37° C. Chromogenic FXa substrate (S-2222), synthetic thrombin inhibitor (I-2581), bovine FIXa and bovine FX were reconstituted in sterile water and FIXa/FX mixed with phospholipids according to the supplier's protocol. […] Per reaction, 50 μl of the phospholipid/FIXa/FX solution were combined with 25 μl CaCl2 (25 mM) and 50 μl of the substrate/inhibitor cocktail. To start the reaction, 125 μl of the premix were added to the peptide solution in the microtiter plate and incubated at 37° C. Absorbance at 405 nm and 490 nm of the samples was read at various times (5 min to 2 h) against a reagent blank in a Labsystems iEMS Reader MF™ microtiter plate reader using GENESIS™ software.

FVIII deficient plasma = test: aPTT based one stage clotting assay in FVIII deficient plasma; assay type: biochemical, human
Procedure: During normal hemostasis, FIX becomes initially activated either by the tissue factor (TF)/factor VIIa pathway or later on by activated factor XI (FXIa). Subsequent to its activation, FIXa associates on the platelet surface in a membrane bound complex with activated FVIII. […] Different amounts of antibody 193/AD3 or mouse IgG (as a control) were used in a standard aPTT based one stage clotting assay. Briefly, 100 μl of antibody-containing samples were incubated with 100 μl of FVIII deficient plasma (DP) and with 100 μl of DAPTTIN (PTT Reagent for determining activated Thromboplastin Time; IMMUNO AG) reagent, in a KC10A clotting analyzer. Where indicated, a total amount of 50 ng activated FIX was included in the reaction mixture. After a 4 minute incubation, the reaction was started by the addition of 100 μl CaCl2 (25 mM).
The peptides were also analyzed for their potential to reduce the clotting time in a FVIII deficient plasma. The aPTT based one stage clotting assay was essentially done as described (see example 6). Clotting times (time from starting the reaction to the “clot”-formation were compared either against FVIII, a buffer control (IZ) or a control peptide (scrambled version). The results of two typical clotting experiments done with two different aPTT reagents (DAPTTIN and Pathromtin SL) are shown in table 3A and table 3B.

factor IXa = molecular target: T2, factor IXa (Bos taurus, UniProt P00741); test: Chromogenic FVIII assay (COATEST VIII:C/4) with the kit's FIXa/FX; assay type: biochemical, bovine; conditions: bovine FIXa and FX only; A1/3 24 μM
T2 construct: purchased Chromogenix COATEST VIII:C/4
Procedure: In order to assay the FVIII-like activity of anti-FIXa antibodies secreted by hybridoma cells, the commercially available test-kit COATEST VIII:C/4® (Chromogenix) was employed. The assay was done essentially as described by the manufacturer with the following modifications:
To allow high throughput screening, the assay was downscaled to microtiter plate format. Briefly, 25 μl aliquots of hybridoma supernatants were transferred to microtiter plate (Costar, #3598) wells and warmed to 37° C. Chromogenic substrate (S-2222), synthetic thrombin inhibitor (I-2581), factor (F) IXa and FX were reconstituted in sterile water and FIXa/FX was mixed with phospholipids according to the supplier's protocol. Per reaction, 50 μl of the phospholipid/FIXa/FX solution were combined with 25 μl CaCl2 (25 mM) and 50 μl of the substrate/inhibitor cocktail. To start the reaction, 125 μl of the premix were added to the hybridoma supernatant in the microtiter plates and incubated at 37° C. Absorbency at 405 nm and 490 nm of the samples was read at various times (30 min to 12 h) against a reagent blank (MLW, cell culture medium instead of hybridoma supernatant) in a Labsystems iEMS Reader MF™ microtiter plate reader. FVIII-like activity of the samples was calculated by comparing the absorbency of the samples against the absorbency of a diluted FVIII reference standard (IMMUNO AG #5T4AR00) using GENESIS™ software.
Several anti-FIX/FIXa antibody producing hybridoma clones were subcloned up to four times and the resulting monoclonal hybridoma cell line used to produce monoclonal antibody containing supernatant. IgG isotype antibodies derived from these supernatants were purified over affinity columns and dialyzed against TBS (see above). IgM antibodies were used as unpurified supernatant fractions. […] Absorbance at 405 nm and 490 nm of the samples was read at various times (5 min to 6 h) against a reagent blank (cell culture medium instead of hybridoma supernatant) in a Labsystems iEMS Reader MF™ microtiter plate reader using GENESIS™ software. […]

T1 sequence (P00740 47-191 limits assumed): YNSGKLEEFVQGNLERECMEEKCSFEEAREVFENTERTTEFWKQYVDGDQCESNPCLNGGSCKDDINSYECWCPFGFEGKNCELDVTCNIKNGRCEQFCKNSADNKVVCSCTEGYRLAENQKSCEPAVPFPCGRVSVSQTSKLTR
T1 sequence (P00740 227-461 limits assumed): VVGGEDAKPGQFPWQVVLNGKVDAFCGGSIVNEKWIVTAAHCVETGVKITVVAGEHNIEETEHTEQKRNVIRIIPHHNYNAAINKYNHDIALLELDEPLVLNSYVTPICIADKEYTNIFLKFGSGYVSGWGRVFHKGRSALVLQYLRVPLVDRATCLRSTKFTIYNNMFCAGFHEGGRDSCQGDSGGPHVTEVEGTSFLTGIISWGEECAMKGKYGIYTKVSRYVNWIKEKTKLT
T2 sequence (P00741 47-192 limits assumed): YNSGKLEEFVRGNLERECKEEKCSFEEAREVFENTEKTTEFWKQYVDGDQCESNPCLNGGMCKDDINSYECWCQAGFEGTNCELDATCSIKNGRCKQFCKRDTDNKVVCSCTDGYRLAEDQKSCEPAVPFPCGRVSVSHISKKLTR
T2 sequence (P00741 228-462 limits assumed): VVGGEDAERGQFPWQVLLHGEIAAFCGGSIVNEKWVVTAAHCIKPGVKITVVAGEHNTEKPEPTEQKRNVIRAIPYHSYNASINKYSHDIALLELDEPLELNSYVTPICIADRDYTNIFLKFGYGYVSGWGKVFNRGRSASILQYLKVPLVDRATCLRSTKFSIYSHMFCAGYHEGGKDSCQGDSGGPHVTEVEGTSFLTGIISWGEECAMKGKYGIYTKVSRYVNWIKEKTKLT

Molecule: RdRdRdEGGGYYVNWYFDRdRdRd [A1/3-Rd]
- chromogenic activity (human FIXa): virtually unchanged
- chromogenic activity (human FIXa; listed as A1/3-rd): did not change the FVIII-like activity
- average clotting time (FVIII deficient plasma; Table 4, 1.25 μM, 2.2 nM FIXa): 96 s
- clotting time (FVIII deficient plasma; Table 4, 1.25 μM, 2.2 nM FIXa, duplicate 1): 96.6 s
- clotting time (FVIII deficient plasma; Table 4, 1.25 μM, 2.2 nM FIXa, duplicate 2): 96 s
- average clotting time (FVIII deficient plasma; Table 4, 1.25 μM, w/o FIXa): 108 s
- clotting time (FVIII deficient plasma; Table 4, 1.25 μM, w/o FIXa, duplicate 1): 107.5 s
- clotting time (FVIII deficient plasma; Table 4, 1.25 μM, w/o FIXa, duplicate 2): 107.7 s
- average clotting time (FVIII deficient plasma; Table 4, 2.5 μM, 2.2 nM FIXa): 95 s
- clotting time (FVIII deficient plasma; Table 4, 2.5 μM, 2.2 nM FIXa, duplicate 1): 94.4 s
- clotting time (FVIII deficient plasma; Table 4, 2.5 μM, 2.2 nM FIXa, duplicate 2): 94.7 s
- average clotting time (FVIII deficient plasma; Table 4, 2.5 μM, w/o FIXa): 103 s
- clotting time (FVIII deficient plasma; Table 4, 2.5 μM, w/o FIXa, duplicate 1): 102.7 s
- clotting time (FVIII deficient plasma; Table 4, 2.5 μM, w/o FIXa, duplicate 2): 103.4 s
- average clotting time (FVIII deficient plasma; Table 4, 5 μM, 2.2 nM FIXa): 86 s
- clotting time (FVIII deficient plasma; Table 4, 5 μM, 2.2 nM FIXa, duplicate 1): 86 s
- clotting time (FVIII deficient plasma; Table 4, 5 μM, 2.2 nM FIXa, duplicate 2): 85.1 s
- average clotting time (FVIII deficient plasma; Table 4, 5 μM, w/o FIXa): 99 s
- clotting time (FVIII deficient plasma; Table 4, 5 μM, w/o FIXa, duplicate 1): 99.2 s
- clotting time (FVIII deficient plasma; Table 4, 5 μM, w/o FIXa, duplicate 2): 99.1 s
- average clotting time (FVIII deficient plasma; Table 4, 7.5 μM, 2.2 nM FIXa): 82 s
- clotting time (FVIII deficient plasma; Table 4, 7.5 μM, 2.2 nM FIXa, duplicate 1): 80.9 s
- clotting time (FVIII deficient plasma; Table 4, 7.5 μM, 2.2 nM FIXa, duplicate 2): 82.2 s
- average clotting time (FVIII deficient plasma; Table 4, 7.5 μM, w/o FIXa): 98 s
- clotting time (FVIII deficient plasma; Table 4, 7.5 μM, w/o FIXa, duplicate 1): 97.6 s
- clotting time (FVIII deficient plasma; Table 4, 7.5 μM, w/o FIXa, duplicate 2): 98.1 s
- average clotting time (FVIII deficient plasma; Table 4, 10 μM, 2.2 nM FIXa): 76 s
- clotting time (FVIII deficient plasma; Table 4, 10 μM, 2.2 nM FIXa, duplicate 1): 74.2 s
- clotting time (FVIII deficient plasma; Table 4, 10 μM, 2.2 nM FIXa, duplicate 2): 77.2 s
- average clotting time (FVIII deficient plasma; Table 4, 10 μM, w/o FIXa): 95 s
- clotting time (FVIII deficient plasma; Table 4, 10 μM, w/o FIXa, duplicate 1): 93.5 s
- clotting time (FVIII deficient plasma; Table 4, 10 μM, w/o FIXa, duplicate 2): 95.8 s
- average clotting time (FVIII deficient plasma; Table 4, 12.5 μM, 2.2 nM FIXa): 73 s
- clotting time (FVIII deficient plasma; Table 4, 12.5 μM, 2.2 nM FIXa, duplicate 1): 72.3 s
- clotting time (FVIII deficient plasma; Table 4, 12.5 μM, 2.2 nM FIXa, duplicate 2): 73.7 s
- average clotting time (FVIII deficient plasma; Table 4, 12.5 μM, w/o FIXa): 98 s
- clotting time (FVIII deficient plasma; Table 4, 12.5 μM, w/o FIXa, duplicate 1): 98 s
- clotting time (FVIII deficient plasma; Table 4, 12.5 μM, w/o FIXa, duplicate 2): 98.6 s
- average clotting time (FVIII deficient plasma; Table 4, 15 μM, 2.2 nM FIXa): 75 s
- clotting time (FVIII deficient plasma; Table 4, 15 μM, 2.2 nM FIXa, duplicate 1): 76.1 s
- clotting time (FVIII deficient plasma; Table 4, 15 μM, 2.2 nM FIXa, duplicate 2): 74.4 s
- average clotting time (FVIII deficient plasma; Table 4, 15 μM, w/o FIXa): 96 s
- clotting time (FVIII deficient plasma; Table 4, 15 μM, w/o FIXa, duplicate 1): 96.4 s
- clotting time (FVIII deficient plasma; Table 4, 15 μM, w/o FIXa, duplicate 2): 95.4 s
- aPTT based one-stage clotting activity (FVIII deficient plasma; compared with A1/3): somewhat reduced, was still easily detectable

B1: 198/A1: anti-FIX/FIXa monoclonal IgG, ECACC No. 99090924; scFv SEQ. ID. NOs. 87 and 88 (protein)
scFv: EVQLQESGGGLVKPGGSLKLSCAASGFIFSSYTMSWVRQTPEKRLEWVATISSGGSSTYYPDSVKGRFTISRDNAKNTLYLQMSSLKSEDTAMYHCTREGGGYYVNWYFDVWGAGTTLTVSSGGGGSGGRASGGGGSDIELTQSPASLAVSLGQRATISCRASESVDSYGKSFMHWYQQKPGQPPKLLIYRASNLESGIPARFSGSGSRTDFTLTINPVEADDVATYYCQQSNEDPLTFGAGTRLEIKR
modifications: scFv derived from IgG; Description of Artificial Sequence:scFv derived from hybridima cell line 198/A1
notes: anti-FIX/FIXa monoclonal IgG, ECACC No. 99090924; ID; NOs; 87 and 88
- chromogenic FVIII-like activity (FXa generation) without human FIXa (factor IXa): does not react with bovine FIXa and FX
- procoagulant activity (FVIII deficient plasma; one-stage clotting assay in the presence of FIXa): show procoagulant activity
